Measurements taken from ChEMBL document CHEMBL5365526 (J Med Chem, 2023).
The source made the active and inactive calls. No cut-off for these calls is given here.

Biological target: von Hippel-Lindau disease tumor suppressor/Mitogen-activated protein kinase 7 (Homo sapiens, UniProt Q13164+P40337)
Experiment: PROTAC activity at VHL/ERK5 in human A-375 cells assessed as induction of ERK5 degradation at 100 nM incubated for 24 hrs by western blot analysis
Format: cell-based
Conditions: not given

Chain of von Hippel-Lindau disease tumor suppressor/Mitogen-activated protein kinase 7 (P40337 whole entry partner): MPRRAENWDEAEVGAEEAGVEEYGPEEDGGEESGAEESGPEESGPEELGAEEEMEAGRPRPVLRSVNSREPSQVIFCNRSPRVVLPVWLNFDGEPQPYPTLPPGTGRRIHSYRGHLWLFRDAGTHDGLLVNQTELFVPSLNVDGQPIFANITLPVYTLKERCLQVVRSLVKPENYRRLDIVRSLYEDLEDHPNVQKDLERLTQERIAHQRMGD
Chain of von Hippel-Lindau disease tumor suppressor/Mitogen-activated protein kinase 7 (Q13164 2-816 limits assumed): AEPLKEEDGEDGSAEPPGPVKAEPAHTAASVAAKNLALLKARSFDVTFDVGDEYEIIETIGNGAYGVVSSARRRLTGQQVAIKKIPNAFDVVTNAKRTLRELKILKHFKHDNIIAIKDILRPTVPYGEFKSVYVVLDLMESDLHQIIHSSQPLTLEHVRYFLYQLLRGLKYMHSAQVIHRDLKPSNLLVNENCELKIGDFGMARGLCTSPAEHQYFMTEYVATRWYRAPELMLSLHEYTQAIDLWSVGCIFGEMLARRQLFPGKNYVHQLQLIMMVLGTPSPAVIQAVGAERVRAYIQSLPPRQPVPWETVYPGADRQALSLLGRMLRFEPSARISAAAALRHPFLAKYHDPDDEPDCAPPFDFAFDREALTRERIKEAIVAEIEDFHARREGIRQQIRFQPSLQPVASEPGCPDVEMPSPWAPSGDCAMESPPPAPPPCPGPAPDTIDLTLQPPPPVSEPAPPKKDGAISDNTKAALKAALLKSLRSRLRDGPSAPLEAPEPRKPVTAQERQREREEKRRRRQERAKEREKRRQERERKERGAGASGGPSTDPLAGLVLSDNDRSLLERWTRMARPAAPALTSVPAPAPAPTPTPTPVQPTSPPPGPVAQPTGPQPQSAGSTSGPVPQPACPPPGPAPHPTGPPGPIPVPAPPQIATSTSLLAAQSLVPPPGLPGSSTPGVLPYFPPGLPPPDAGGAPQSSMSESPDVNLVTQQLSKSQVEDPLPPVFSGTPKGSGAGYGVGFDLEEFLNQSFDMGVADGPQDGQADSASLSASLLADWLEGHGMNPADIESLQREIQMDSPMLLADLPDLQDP

Row | Structure (SMILES) | Activity
1 | COc1cc(NC(=O)NCCCCCNc2cccc3c2C(=O)N(C2CCC(=O)NC2=O)C3=O)ccc1Nc1ncc2c(n1)N(C)c1ccccc1C(=O)N2C (centres undefined) | inactive
2 | COc1cc(N2CCN(C(=O)CCCCC#Cc3cccc4c3CN(C3CCC(=O)NC3=O)C4=O)CC2)ccc1Nc1ncc2c(n1)N(C)c1ccccc1C(=O)N2C (centres undefined) | inactive
3 | COc1cc(N2CCN(CCCCC(=O)N[C@H](C(=O)N3C[C@H](O)C[C@H]3C(=O)N[C@@H](C)c3ccc(-c4scnc4C)cc3)C(C)(C)C)CC2)ccc1Nc1ncc2c(n1)N(C)c1ccccc1C(=O)N2C | Active
4 | COc1cc(N2CCN(CCCCCC(=O)N[C@H](C(=O)N3C[C@H](O)C[C@H]3C(=O)N[C@@H](C)c3ccc(-c4scnc4C)cc3)C(C)(C)C)CC2)ccc1Nc1ncc2c(n1)N(C)c1ccccc1C(=O)N2C | Active
5 | COc1cc(C(=O)N2CCN(CCCCCC(=O)N[C@H](C(=O)N3C[C@H](O)C[C@H]3C(=O)N[C@@H](C)c3ccc(-c4scnc4C)cc3)C(C)(C)C)CC2)ccc1Nc1ncc2c(n1)N(C)c1ccccc1C(=O)N2C | Active
6 | COc1cc(NC(=O)NCCOCCOCCOCCNc2cccc3c2C(=O)N(C2CCC(=O)NC2=O)C3=O)ccc1Nc1ncc2c(n1)N(C)c1ccccc1C(=O)N2C (centres undefined) | inactive
7 | COc1cc(N2CCC(OCCCCCC(=O)N[C@H](C(=O)N3C[C@H](O)C[C@H]3C(=O)N[C@@H](C)c3ccc(-c4scnc4C)cc3)C(C)(C)C)CC2)ccc1Nc1ncc2c(n1)N(C)c1ccccc1C(=O)N2C | Active
8 | COc1cc(N2CCN(CCCCCCCCCC(=O)N[C@H](C(=O)N3C[C@H](O)C[C@H]3C(=O)N[C@@H](C)c3ccc(-c4scnc4C)cc3)C(C)(C)C)CC2)ccc1Nc1ncc2c(n1)N(C)c1ccccc1C(=O)N2C | Active
9 | COc1cc(N2CCN(CCCCCCCCCCC(=O)N[C@H](C(=O)N3C[C@H](O)C[C@H]3C(=O)N[C@@H](C)c3ccc(-c4scnc4C)cc3)C(C)(C)C)CC2)ccc1Nc1ncc2c(n1)N(C)c1ccccc1C(=O)N2C | Active
10 | COc1cc(NC(=O)CCCCCn2cc(CCNc3cccc4c3C(=O)N(C3CCC(=O)NC3=O)C4=O)nn2)ccc1Nc1ncc2c(n1)N(C)c1ccccc1C(=O)N2C (centres undefined) | inactive
11 | COc1cc(NC(=O)CNc2cccc3c2C(=O)N(C2CCC(=O)NC2=O)C3=O)ccc1Nc1ncc2c(n1)N(C)c1ccccc1C(=O)N2C (centres undefined) | inactive
12 | COc1cc(NC(=O)NCCCCCCNc2cccc3c2C(=O)N(C2CCC(=O)NC2=O)C3=O)ccc1Nc1ncc2c(n1)N(C)c1ccccc1C(=O)N2C (centres undefined) | inactive

Further lines, results first:

Row | Activity | Structure (SMILES)
13 | inactive | COc1cc(NC(=O)NCCOCCNc2cccc3c2C(=O)N(C2CCC(=O)NC2=O)C3=O)ccc1Nc1ncc2c(n1)N(C)c1ccccc1C(=O)N2C (centres undefined)
14 | Active | COc1cc(N2CCN(CCOCC#Cc3cccc4c3CN(C3CCC(=O)NC3=O)C4=O)CC2)ccc1Nc1ncc2c(n1)N(C)c1ccccc1C(=O)N2C (centres undefined)
15 | Active | COc1cc(N2CCN(CCOCCOCCCN[C@H](C(=O)N3C[C@H](O)C[C@H]3C(=O)N[C@@H](C)c3ccc(-c4scnc4C)cc3)C(C)(C)C)CC2)ccc1Nc1ncc2c(n1)N(C)c1ccccc1C(=O)N2C
16 | inactive | COc1cc(NC(=O)NCCCCNc2cccc3c2C(=O)N(C2CCC(=O)NC2=O)C3=O)ccc1Nc1ncc2c(n1)N(C)c1ccccc1C(=O)N2C (centres undefined)
17 | Active | COc1cc(N2CCN(CCOCCNc3cccc4c3C(=O)N(C3CCC(=O)NC3=O)C4=O)CC2)ccc1Nc1ncc2c(n1)N(C)c1ccccc1C(=O)N2C (centres undefined)
18 | inactive | COc1cc(NC(=O)NCCOCCOCCNc2cccc3c2C(=O)N(C2CCC(=O)NC2=O)C3=O)ccc1Nc1ncc2c(n1)N(C)c1ccccc1C(=O)N2C (centres undefined)
19 | inactive | COc1cc(C(=O)N2CCN(C(=O)CCCCC#Cc3cccc4c3CN(C3CCC(=O)NC3=O)C4=O)CC2)ccc1Nc1ncc2c(n1)N(C)c1ccccc1C(=O)N2C (centres undefined)
20 | Active | COc1cc(N2CCN(CCCCCCCCC(=O)N[C@H](C(=O)N3C[C@H](O)C[C@H]3C(=O)N[C@@H](C)c3ccc(-c4scnc4C)cc3)C(C)(C)C)CC2)ccc1Nc1ncc2c(n1)N(C)c1ccccc1C(=O)N2C
21 | inactive | COc1cc(NC(=O)CCCCCCCCCCNc2cccc3c2C(=O)N(C2CCC(=O)NC2=O)C3=O)ccc1Nc1ncc2c(n1)N(C)c1ccccc1C(=O)N2C (centres undefined)
22 | inactive | COc1cc(NC(=O)NCCCNc2cccc3c2C(=O)N(C2CCC(=O)NC2=O)C3=O)ccc1Nc1ncc2c(n1)N(C)c1ccccc1C(=O)N2C (centres undefined)
23 | Active | COc1cc(N2CCN(CCCCCCCC(=O)N[C@H](C(=O)N3C[C@H](O)C[C@H]3C(=O)N[C@@H](C)c3ccc(-c4scnc4C)cc3)C(C)(C)C)CC2)ccc1Nc1ncc2c(n1)N(C)c1ccccc1C(=O)N2C

Biological target: Mitogen-activated protein kinase 7 (Homo sapiens, UniProt Q13164)
Sequence (Q13164 whole entry): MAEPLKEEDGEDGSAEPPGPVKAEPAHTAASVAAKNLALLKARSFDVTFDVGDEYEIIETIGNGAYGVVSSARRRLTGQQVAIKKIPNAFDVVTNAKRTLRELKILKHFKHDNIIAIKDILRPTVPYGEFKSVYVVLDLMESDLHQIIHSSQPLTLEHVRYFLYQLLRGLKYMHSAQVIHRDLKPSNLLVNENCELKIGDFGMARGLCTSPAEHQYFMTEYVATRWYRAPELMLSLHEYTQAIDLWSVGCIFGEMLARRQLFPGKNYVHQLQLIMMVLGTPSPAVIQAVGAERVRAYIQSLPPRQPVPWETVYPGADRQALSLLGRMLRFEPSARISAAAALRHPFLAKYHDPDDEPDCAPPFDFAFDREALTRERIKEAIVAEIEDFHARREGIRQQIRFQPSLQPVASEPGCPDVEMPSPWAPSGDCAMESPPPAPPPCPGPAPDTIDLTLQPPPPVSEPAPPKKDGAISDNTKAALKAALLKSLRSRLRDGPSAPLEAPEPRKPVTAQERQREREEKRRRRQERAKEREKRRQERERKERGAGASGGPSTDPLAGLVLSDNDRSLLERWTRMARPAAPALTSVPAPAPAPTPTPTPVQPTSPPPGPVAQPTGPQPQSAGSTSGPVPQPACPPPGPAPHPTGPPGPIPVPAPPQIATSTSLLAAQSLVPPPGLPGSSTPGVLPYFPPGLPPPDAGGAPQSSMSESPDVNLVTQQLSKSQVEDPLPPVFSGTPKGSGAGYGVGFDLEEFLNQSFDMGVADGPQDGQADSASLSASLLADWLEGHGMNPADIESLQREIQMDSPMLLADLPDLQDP
Experiment: Inhibition of ERK5 (unknown origin) by ADP-Glo kinase assay
Conditions: not given

Row | IC50 [nM] | Structure (SMILES)
24 | 27.1 | CCOC(=O)CCCCCCN1CCN(c2ccc(Nc3ncc4c(n3)N(C)c3ccccc3C(=O)N4C)c(OC)c2)CC1
25 | 10.1 | COc1cc(N2CCNCC2)ccc1Nc1ncc2c(n1)N(C)c1ccccc1C(=O)N2C
26 | 67.1 | COc1cc(N2CCN(CCCCCCCC(=O)N[C@H](C(=O)N3C[C@H](O)C[C@H]3C(=O)N[C@@H](C)c3ccc(-c4scnc4C)cc3)C(C)(C)C)CC2)ccc1Nc1ncc2c(n1)N(C)c1ccccc1C(=O)N2C

Test system: not listed separately
Experiment: Inhibition of M2 macrophage development in PMA-differentiated human THP-1 cells assessed as CD206 surface expression at 5 uM incubated for 48 hrs by flow cytometry (reference value: 53.4%)
Format: functional
Parameters: scale not given: the % may be the effect or the level left
Conditions: not given

Row | Structure (SMILES) | Activity [%]
27 | CCOc1cc(N2CCC(O)CC2)ccc1Nc1ncc2c(n1)N(C)c1ccccc1C(=O)N2C | 44.5

Test system: A-375
Experiment: Inhibition of cell colony formation in human A-375 cells at 5 uM cultured in 8% FBS and measured after 7 days in presence of LPS by crystal violet staining based analysis
Format: functional
Conditions: time 7.0 day

Row | Structure (SMILES) | inhibition
28 | CCOc1cc(N2CCC(O)CC2)ccc1Nc1ncc2c(n1)N(C)c1ccccc1C(=O)N2C | Active

Test system: HCT-116
Experiment: Inhibition of cell colony formation in human HCT-116 cells at 5 uM cultured in 8% FBS and measured after 7 days in presence of LPS by crystal violet staining based analysis
Format: functional
Conditions: time 7.0 day

Row | Structure (SMILES) | inhibition
29 | CCOc1cc(N2CCC(O)CC2)ccc1Nc1ncc2c(n1)N(C)c1ccccc1C(=O)N2C | Active
